From US12419900B2, “Induction of synthetic lethality with epigenetic therapy” (The Johns Hopkins University, priority 2017, dated 2025)

Legend:
[1] = tested on: DU145 prostate cancer cells; assay: Alamar blue cell viability and growth, alisertib x decitabine dose matrix; assay type: cell-based; details: for Percent Growth Inhibition: Alisertib 0 nM
Experimental: DU145 prostate cancer cells and A549 lung cancer cells were treated with varying concentrations (0 nM, 10 nM, 50 nM, and 100 nM) of alisertib in addition to varying concentrations of decitabine (0 nM, 50 nM, 100 nM, and 250 nM). Representative data are shown in FIGS. 2A and 2B, as well as the Tables below. […] In each panel, a dose response of each drug alone and in combination was used in Alamar blue cell viability assays. […] Formal synergy analyses were performed using the Bliss independence score (where values greater than zero indicate greater than additive effect). […] The graph of FIG. 2A is a growth curve of the DU145 prostate cancer cells for the agents alone (decitabine and alisertib separately), a vehicle control, and the agents in combination (decitabine and alisertib together). […] Likewise, the graph of FIG. 2B is a growth curve of the A549 lung cancer cells for the agents alone (decitabine and alisertib separately), a vehicle control, and the agents in combination (decitabine and alisertib together). […] The synergy analysis of the combination of decitabine and alisertib was evaluated in a series of 18 cancer cell lines (9 prostate, 1 ovarian, 1 lung, 2 colon, 2 central nervous system, and 3 breast cancer cell lines) and 2 non-cancer cell models.

A549 lung cancer cells = assay: as above; assay type: cell-based; details: for Percent Growth Inhibition: Alisertib 0 nM
Experimental: DU145 prostate cancer cells and A549 lung cancer cells were treated with varying concentrations (0 nM, 10 nM, 50 nM, and 100 nM) of alisertib in addition to varying concentrations of decitabine (0 nM, 50 nM, 100 nM, and 250 nM). Representative data are shown in FIGS. 2A and 2B, as well as the Tables below. […] Formal synergy analyses were performed using the Bliss independence score (where values greater than zero indicate greater than additive effect). […] The graph of FIG. 2A is a growth curve of the DU145 prostate cancer cells for the agents alone (decitabine and alisertib separately), a vehicle control, and the agents in combination (decitabine and alisertib together). […] Likewise, the graph of FIG. 2B is a growth curve of the A549 lung cancer cells for the agents alone (decitabine and alisertib separately), a vehicle control, and the agents in combination (decitabine and alisertib together). […] The synergy analysis of the combination of decitabine and alisertib was evaluated in a series of 18 cancer cell lines (9 prostate, 1 ovarian, 1 lung, 2 colon, 2 central nervous system, and 3 breast cancer cell lines) and 2 non-cancer cell models.

primary hepatocytes = assay: Cell viability and growth, alisertib x decitabine dose matrix; assay type: cell-based; details: for Percent Growth Inhibition: Alisertib 0 nM
Experimental: The synergy analysis of the combination of decitabine and alisertib was evaluated in a series of 18 cancer cell lines (9 prostate, 1 ovarian, 1 lung, 2 colon, 2 central nervous system, and 3 breast cancer cell lines) and 2 non-cancer cell models. A final cumulative Bliss synergy score was calculated based on the sum of the synergy values from each of the 16 combinations of 0 nM, 10 nM, 50 nM, and 100 nM of alsertib together with 0 nM, 50 nM, 100 nM, and 250 nM of decitabine.

DU145 xenograft tumor = assay: In vivo xenograft study of DU145, decitabine and alisertib; parameters: species or system nude mice; details: for tumor growth (FIG. 5A): decitabine alone, alisertib high and low dose alone, combinations concurrent or primed, low and high dose alisertib; for xenograft tissue growth or survival compared to the vehicle control: single agent therapy at the doses tested (decitabine 0.75 mg/kg; alisertib 15 or 25 mg/kg)
Experimental: Using in vivo xenograft studies of the DU145 prostate cancer cell line, the effect was explored of the treatment of two dose levels of alisertib alone or in combination with decitabine using two different treatment time schedules over a period of seven weeks. First, nude mice were inoculated with DU145 cells that were allowed to incubate for 10-12 days to establish xenograft tumor. The inoculated mice were then treated concomitantly with both a high dose and a low dose of alisertib and decitabine in the first two weeks or primed with decitabine alone for two weeks followed by alisertib alone in the first cycle. The dose of decitabine was held constant at 0.75 mg/kg and given with either low-dose (15 mg/kg) or high-dose (25 mg/kg) alisertib, as indicated in FIG. 4. The cumulative number of doses of decitabine and alisertib was the same in all combination treatment arms in both schedules.

[2] = tested on: residual xenograft tumors; assay: KI-67 and Caspase 3A staining of residual xenograft tumors; assay type: in vivo, nude mice; details: decitabine pre-treatment experiment
From the text: The proliferative index and apoptotic fraction in residual xenograft tumors from the decitabine pre-treatment experiment was then examined. Sample cells from each of the vehicle control, decitabine pre-treatment alone, alisertib alone, and decitabine pretreatment in combination with alisertib were stained with either KI-67 or Caspase 3A.

Aurora Kinase A (AURKA) = assay: Western Blot in DU145 cells; assay type: cell-based; details: 100 nM decitabine, 100 nM alisertib
Experimental: (§1) Western Blot analyses for AURKA were performed on DU145 cell tissue sample treated with vehicle control; 100 nM alisertib alone; 100 nM decitabine alone; and 100 nM of decitabine in combination with 100 nM of alisertib.

DNMT3B = assay: Western Blot in DU145 cells; assay type: cell-based; details: 100 nM decitabine, 100 nM alisertib
Experimental: as §1, with “DNA methyltransferase enzymes comprise a family of enzymes including DNMT1, DNMT3A, and DNMT3B. […] In this study, Western” for “Western”, “DNMT3B” for “AURKA”

DNMT1 = assay: Protein levels in DU145 cells (data not shown); assay type: cell-based
Satellite 2 sequences = assay: Bisulfite genomic sequencing of repetitive elements; assay type: cell-based; details: DU145; vehicle control 45.09%
[3] = In vivo toxicity profile of treated mice; details: FIGS. 7D and 7E
From the text: The toxicity profile of the treated mice was observed, and the animals were weighed over the course of the experiment.

DNMT3A = assay: Protein levels in DU145 cells (data not shown); assay type: cell-based

SMILES: Nc1ncn([C@H]2C[C@H](O)[C@@H](CO)O2)c(=O)n1 [decitabine, 5-aza-2′-deoxycytidine]
- Percent Growth Inhibition ([1]; DU145, DAC 50 nM): 0.04
- Percent Growth Inhibition ([1]; DU145, DAC 100 nM): 0.08
- Percent Growth Inhibition ([1]; DU145, DAC 250 nM): 0.77
- cell survival in tissue culture ([1]; DU145, low dose decitabine 100 nM): most of the cells survived
- Percent Growth Inhibition (A549 lung cancer cells; DAC 50 nM): 0.03
- Percent Growth Inhibition (A549 lung cancer cells; DAC 100 nM): 0
- Percent Growth Inhibition (A549 lung cancer cells; DAC 250 nM): 0.14
- Percent Growth Inhibition (primary hepatocytes; DAC 50 nM): 0.16
- Percent Growth Inhibition (primary hepatocytes; DAC 100 nM): 0.30
- Percent Growth Inhibition (primary hepatocytes; DAC 250 nM): 0.29
- Fold Change in Tumor Size, Mean (DU145 xenograft tumor; DAC 0.75 mg/kg alone, week 0): 1
- Fold Change in Tumor Size, Mean (DU145 xenograft tumor; DAC 0.75 mg/kg alone, week 1): 1.31
- Fold Change in Tumor Size, Mean (DU145 xenograft tumor; DAC 0.75 mg/kg alone, week 2): 1.90
- Fold Change in Tumor Size, Mean (DU145 xenograft tumor; DAC 0.75 mg/kg alone, week 3): 2.68
- Fold Change in Tumor Size, Mean (DU145 xenograft tumor; DAC 0.75 mg/kg alone, week 4): 3.81
- Fold Change in Tumor Size, Mean (DU145 xenograft tumor; DAC 0.75 mg/kg alone, week 5): 4.60
- Fold Change in Tumor Size, Mean (DU145 xenograft tumor; DAC 0.75 mg/kg alone, week 6): 5.10
- Fold Change in Tumor Size, Mean (DU145 xenograft tumor; DAC 0.75 mg/kg alone, week 7): 5.49
- tumor growth (FIG. 5A) (DU145 xenograft tumor): continued to grow at a significant rate
- xenograft tissue growth or survival compared to the vehicle control (DU145 xenograft tumor): did not significantly alter
- Caspase 3A staining (apoptosis) [2]: almost no alteration
- KI-67 staining (cell proliferation) [2]: almost no alteration
- AURKA protein levels (Aurora Kinase A (AURKA)): significantly induce
- DNMT3B levels (DNMT3B): did not significantly alter
- DNMT1 levels (DNMT1): significantly reduced
- percent of CpG Satellite 2 methylation (Satellite 2 sequences): 33.33%

SMILES: COc1cc(Nc2ncc3c(n2)-c2ccc(Cl)cc2C(c2c(F)cccc2OC)=NC3)ccc1C(=O)O [alisertib]
- growth inhibition of DU-145 cells in combination with decitabine ([1]; Aurora kinase inhibitor + decitabine): synergistic growth inhibition
- inhibition at 0.01 µM ([1]; Homo sapiens, DU-145, DU145, DAC 0 nM, Alisertib 10 nM, read-out: Percent Growth Inhibition): 0%
- inhibition at 0.05 µM ([1]; Homo sapiens, DU-145, DU145, DAC 0 nM, Alisertib 50 nM, read-out: Percent Growth Inhibition): 0%
- inhibition at 0.1 µM ([1]; Homo sapiens, DU-145, DU145, DAC 0 nM, Alisertib 100 nM, read-out: Percent Growth Inhibition): 2%
- inhibition at 0.01 µM (A549 lung cancer cells; Homo sapiens, DAC 0 nM, Alisertib 10 nM, read-out: Percent Growth Inhibition): 0%
- inhibition at 0.05 µM (A549 lung cancer cells; Homo sapiens, DAC 0 nM, Alisertib 50 nM, read-out: Percent Growth Inhibition): 0%
- inhibition at 0.1 µM (A549 lung cancer cells; Homo sapiens, DAC 0 nM, Alisertib 100 nM, read-out: Percent Growth Inhibition): 1%
- inhibition at 0.01 µM (primary hepatocytes; Hepatocyte, DAC 0 nM, Alisertib 10 nM, read-out: Percent Growth Inhibition): 10%
- inhibition at 0.05 µM (primary hepatocytes; Hepatocyte, DAC 0 nM, Alisertib 50 nM, read-out: Percent Growth Inhibition): 21%
- inhibition at 0.1 µM (primary hepatocytes; Hepatocyte, DAC 0 nM, Alisertib 100 nM, read-out: Percent Growth Inhibition): 15%
- Fold Change in Tumor Size, Mean (DU145 xenograft tumor; Alisertib high dose 25 mg/kg alone, week 0): 1
- Fold Change in Tumor Size, Mean (DU145 xenograft tumor; Alisertib high dose 25 mg/kg alone, week 1): 1.69
- Fold Change in Tumor Size, Mean (DU145 xenograft tumor; Alisertib high dose 25 mg/kg alone, week 2): 2.35
- Fold Change in Tumor Size, Mean (DU145 xenograft tumor; Alisertib high dose 25 mg/kg alone, week 3): 3.16
- Fold Change in Tumor Size, Mean (DU145 xenograft tumor; Alisertib high dose 25 mg/kg alone, week 4): 5.08
- Fold Change in Tumor Size, Mean (DU145 xenograft tumor; Alisertib high dose 25 mg/kg alone, week 5): 6.47
- Fold Change in Tumor Size, Mean (DU145 xenograft tumor; Alisertib high dose 25 mg/kg alone, week 6): 8.46
- Fold Change in Tumor Size, Mean (DU145 xenograft tumor; Alisertib high dose 25 mg/kg alone, week 7): 9.98
- Fold Change in Tumor Size, Mean (DU145 xenograft tumor; Alisertib low dose 15 mg/kg alone, week 0): 1
- Fold Change in Tumor Size, Mean (DU145 xenograft tumor; Alisertib low dose 15 mg/kg alone, week 1): 1.31
- Fold Change in Tumor Size, Mean (DU145 xenograft tumor; Alisertib low dose 15 mg/kg alone, week 2): 2.25
- Fold Change in Tumor Size, Mean (DU145 xenograft tumor; Alisertib low dose 15 mg/kg alone, week 3): 2.96
- Fold Change in Tumor Size, Mean (DU145 xenograft tumor; Alisertib low dose 15 mg/kg alone, week 4): 4.33
- Fold Change in Tumor Size, Mean (DU145 xenograft tumor; Alisertib low dose 15 mg/kg alone, week 5): 5.12
- Fold Change in Tumor Size, Mean (DU145 xenograft tumor; Alisertib low dose 15 mg/kg alone, week 6): 6.02
- Fold Change in Tumor Size, Mean (DU145 xenograft tumor; Alisertib low dose 15 mg/kg alone, week 7): 7.54
- tumor growth (FIG. 5A) (DU145 xenograft tumor): continued to grow at a significant rate
- xenograft tissue growth or survival compared to the vehicle control (DU145 xenograft tumor): did not significantly alter
- AST and ALT (liver function) [3]: elevated
- Caspase 3A staining (apoptosis) [2]: almost no alteration
- KI-67 staining (cell proliferation) [2]: almost no alteration
- DNMT3B levels (DNMT3B): significantly reduce
- DNMT1 levels (DNMT1): did not significantly affect
- DNMT3A levels (DNMT3A): did not significantly affect
- percent of CpG Satellite 2 methylation (Satellite 2 sequences): 40.6%
